From US20250009743A1, “METHODS OF TREATING CANCERS USING STING AGONISTS” (Dana-Farber Cancer Institute, Inc., priority 2021, published 2025) come the findings set out here.

One assay relates to PE tumors. Briefly: PE (exon19del/T790M EGFR, Trp53 loss) tumor growth in FVB mice. The settings on record: start at about 400 mm^3; osimertinib 10 mg/kg daily by gavage; MSA-2 20 mg/kg i.p. every three days; FIG. 30A. In kind it is in vivo, mouse.
For the next assay, the system named is PBM tumors. Put plainly: PBM ovarian tumor burden in syngeneic FVB/NJ mice. It counts as in vivo, mouse. The settings on record: olaparib 50 mg/kg i.p. 6 days a week; most tumors eventually progressed; FIG. 15B. The procedure: Tumor burden of PBM tumor-bearing mice treated with indicated agents was measured by bioluminescence (ROI, […]) after 2 weeks of treatment (control, n=6; olaparib, n=7, olaparib+MSA-2, n=4). Ordinary one-way ANOVA analysis. **, P<0.01; ***, P<0.001. The murine ovarian tumor model PBM used for this experiment was previously generated (Ding L, Kim H J, Wang Q, Kearns M, Jiang T, Ohlson C E, Li B B, Xie S, Liu J F, Stover E H, Howitt B E, Bronson R T, Lazo S, Roberts T M, Freeman G J, Konstantinopoulos P A, Matulonis U A, Zhao J J. PARP Inhibition Elicits STING-Dependent Antitumor Immunity in Brca1-Deficient Ovarian Cancer. Cell Rep. 2018 Dec. 11;25 (11): 2972-2980.e5. doi: 10.1016/j.celrep.2018.11.054. PMID: 30540933; PMCID: PMC6366450). About 2×10^5 PBM tumor cells were orthotopically transplanted into syngeneic FVB/NJ mice. Ten days after transplantation, Tumor-bearing mice were equivalently divided into control and treatment groups according to the luminescent intensity. Tumor burden of PBM tumor-bearing mice was measured by bioluminescence (ROI, […]). Olaparib (AZD2281) was administered daily by i.p. (intraperitoneal) injection at dose of 50 mg/kg body weight. […]
The PBM and PBM-R tumor cells were transplanted orthotopically into syngeneic FVB/NJ mice to generated tumors for drug evaluation. […] The endpoints were determined by tumor burden and ascites.

The test system of assay [1] is STAT3 phosphorylation in PBM tumor cells. Briefly: p-STAT3 (Y705) in PBM tumor cells (flow cytometry, Western blot). It counts as cell-based, mouse. The settings on record: PARPi-naïve PBM cells, 24 hours; FIGS. 19D and 20B. The procedure:
Analysis of p-STAT3 and γ-H2AX (p-HA2X-Ser139) was performed according to a two-step protocol for intracellular phosphorylated signaling proteins (Thermo Fisher). Briefly, cells were incubated with LIVE/DEAD Fixable Aqua Dead Cell Stain for 30 min. After washing, cells were suspended in 100 μl PBS and then fixed by adding an equal volume of IC Fixation Buffer (CAT #00-822-49, Thermo Fisher) directly to cells and incubated at room temperature for 20 min followed by fixing with ice-cold 90% methanol in PBS for 30 min. The fixed cells were blocked and stained with p-STAT3 or γ-H2AX antibodies for flow cytometry analysis as described above.
Tumor cells were harvested and lysed with ice-cold RIPA buffer supplemented with protease phosphatase inhibitor cocktail (Thermo Fisher). Protein concentration was determined using a Pierce BCA Protein Assay Kit (Thermo Fisher). About 50 μg protein extracts were loaded and separated by SDS-PAGE, and then transferred to polyvinylidene fluoride (PVDF) membranes. After blocking with 5% non-fat milk (Bio-Rad) in PBST (PBS plus 0.2% Tween 20) at room temperature for 1 hr, membranes were incubated with primary antibodies overnight at 4° C.
On the technique in general: Flow cytometry measures light scatter and fluorescence of single cells or particles in a stream.

Assay [2] deals with ovarian PDXs DF86, DF101, DF118 and DF149. Put plainly: p-STAT3 (Y705) in PARPi-resistant ovarian PDX cells. In kind it is cell-based, human. The settings on record: 5 μM olaparib for 24 hours; FIG. 25B. An excerpt:
UWB1.289 and UWB1.289+BRCA1 were purchased from ATCC and cultured in epithelial complete growth medium (50% ATCC-formulated RPMI-1640 medium, 50% MEGM medium and 3% fetal bovine serum) as described previously (Ding et al., 2018, Cell Rep 25, 2972-2980.e2975). ID8-Brca^+/+ and ID8-Brca^−/− cells were previously generated by CRISPR-Cas9 technology. The ovarian cancer patient-derived tumor xenografts (PDX) were established at Dana-Farber Cancer Institute by intraperitoneally implanting tumor cells that isolated from patients' ascites into irradiated nude mice (Liu et al., 2017; Clinical cancer research: an official journal of the American Association for Cancer Research 23, 1263-1273). The established PDX models were maintained by intraperitoneally transplantation in NOD/SCID IL2Rgnull mice (NSG, The Jackson Laboratory). The ovarian PDX cells could be cultured in the epithelial complete growth medium for about 3 to 4 days for in vitro experiments.
Analysis of p-STAT3 and γ-H2AX (p-HA2X-Ser139) was performed according to a two-step protocol for intracellular phosphorylated signaling proteins (Thermo Fisher). Briefly, cells were incubated with LIVE/DEAD Fixable Aqua Dead Cell Stain for 30 min. […]

In the case of `COc1cc2cc(C(=O)CCC(=O)O)sc2cc1OC` [MSA-2], in the assay with PE tumors, the PE tumor growth result is on record as “only modest therapeutic effects”.

For the compound `O=C(c1cc(Cc2n[nH]c(=O)c3ccccc23)ccc1F)N1CCN(C(=O)C2CC2)CC1` [olaparib], the PBM tumor response entry with PBM tumors is on record as “initial robust response”. Further, in assay [1], the “phosphorylation of STAT3” value is reported as “increased phosphorylation levels of STAT3 in cultured PBM cells in a dose-dependent manner”. In assay [2], the “PDX cells with increased phosphorylation level STAT3” value is given as 3 out of 4.
